Test results as given in patent publication US20220266206A1, “FORMULATION AND PROCESS FOR MANUFACTURING A HEAT STABLE OIL-IN-WATER EMULSION FOR CANNABIS BEVERAGES IN PLASTIC BOTTLES” (Gaia Botanicals LLC DBA Bluebird Botanicals, priority 2021, published 2022).

Assay: Solubility of CBD in MCT oil (fractionated coconut oil)
Assay type: physicochemical
Conditions: carrier oil: fractionated coconut oil (MCT oil)
Excerpt: In first mixing step 100, cannabinoid extract may be advantageously dissolved into a carrier oil to create oil phase 150. An aspect of the current invention is the use of a carrier oil, which overcomes the issues of aqueous solubility for the cannabinoid extract, particularly CBD. In its pure form, CBD is a non-polar crystalline solid which in the absence of an oil or alcohol will not readily dissolve to form a stable emulsion with the gum blend. By dissolving the CBD in a carrier oil in first mixing step 100, the CBD will be readily dissolved into the oil which increases its suitability for emulsion formation. In an embodiment of the invention, CBD is added to fractionated coconut oil (MCT oil) in first mixing step 100 using an immersion blender to thoroughly mix, then the mixture is transferred to a magnetic stir plate to allow for slow gentle mixing of the oil until the CBD is completely dissolved. First mixing step 100 can comprise immersion blending at a high shear rate followed by a slower mixing utilizing a stir bar. Heat may be used to speed the process but may result on oxidation of the CBD as well as result in off-flavors. MCT oil offers several advantages over other possible carrier oils as it is both colorless and nearly flavorless, and it readily dissolves CBD at concentrations as high as 30%. […]

## C=C(C)[C@@H]1CCC(C)=C[C@H]1c1c(O)cc(CCCCC)cc1O [CBD, cannabidiol]
  concentration of CBD readily dissolved in MCT oil: ≤ 30%
